Test in all cases: agar dilution test (MIC)
Holding throughout (assay type): cell-based
On the technique in general: In agar dilution the substance is mixed into plates at graded concentrations.

One experiment concerns E.coli 055. Conditions: Escherichia coli, Mueller Hinton agar, 16 to 18 hours at 37°C, read-out: Minimum Inhibitory Concentration (MIC). How it is done:
(§1) The antimicrobial activity was determined by measuring the Minimum Inhibitory Concentration (MIC). The MIC of the compounds was determined by a standard test, the "agar dilution test" according to Lorian (Antibiotics in Laboratory Medicine, Williams and Wilkins, Baltimore/London 1980) as follows:
(§2) A two-fold decreasing concentration series of each compound was prepared in Petri dishes containing 15 ml of Mueller Hinton agar (Difco). One Petri dish containing only the Mueller Hinton agar served as control for bacterial growth. Each Petri dish was inoculated with a multi-point inoculator (Denley), which transferred 0.6µl of a 1:100 diluted 18 hours culture of the appropriate test bacterium. After 16 to 18 hours of incubation at 37°C the Petri dishes were examined for growth of bacteria. The lowest concentration of the compound which causes complete inhibition of growth is taken as the MIC except that the growth of a single colony or a haze is not taken as evidence of qrowth.

The test system of a further experiment is Ent.cloacae P99. Conditions: Enterobacter cloacae, Mueller Hinton agar, 16 to 18 hours at 37°C, read-out: Minimum Inhibitory Concentration (MIC). The method, then: as §1, §2
In the next experiment the test system is E.coli DC0. Conditions: Escherichia coli, Mueller Hinton agar, 16 to 18 hours at 37°C, read-out: Minimum Inhibitory Concentration (MIC). How it is done:
as §1, §2

In a further experiment the test system is E.coli DC2. Conditions: Escherichia coli, Mueller Hinton agar, 16 to 18 hours at 37°C, read-out: Minimum Inhibitory Concentration (MIC). The method, then: as §1, §2
The next experiment concerns Kl.aerog. 1082E. The note with it: Mueller Hinton agar, 16 to 18 hours at 37°C, read-out: Minimum Inhibitory Concentration (MIC). The method, then: as §1, §2
In a further experiment the test system is Kl.aerog. 1522E. The note with it: read-out: Minimum Inhibitory Concentration (MIC). How it is done: as §1, §2
The test system of another experiment is E.coli TEM. The note with it: Escherichia coli, read-out: Minimum Inhibitory Concentration (MIC). How it is done: as §1, §2
In a further experiment the test system is Str.faecium D. Conditions: Enterococcus faecium; Str.faecium D; Mueller Hinton agar, 16 to 18 hours at 37°C; read-out: Minimum Inhibitory Concentration (MIC). How it is done:
as §1, §2

The test system of the next experiment is Ent.cloacae 1321E. The note with it: Enterobacter cloacae, 1321E, read-out: Minimum Inhibitory Concentration (MIC). How it is done: as §1, §2
The subject of another experiment is Salm.typh. MZII. Conditions: Mueller Hinton agar, 16 to 18 hours at 37°C, read-out: Minimum Inhibitory Concentration (MIC). The method, then:
as §1, §2

Another experiment relates to Bac.subt. ATCC6633. Conditions: Mueller Hinton agar, 16 to 18 hours at 37°C, read-out: Minimum Inhibitory Concentration (MIC). The method, then:
as §1, §2

Another experiment concerns Str.pyogenes 308A. Conditions: Streptococcus pyogenes, Mueller Hinton agar, 16 to 18 hours at 37°C, read-out: Minimum Inhibitory Concentration (MIC). How it is done:
as §1, §2

The test system of the next experiment is Staph.aureus 285. Conditions: Staphylococcus aureus, Mueller Hinton agar, 16 to 18 hours at 37°C, read-out: Minimum Inhibitory Concentration (MIC). The method, then: as §1, §2
In a further experiment the test system is E.coli 1507E. Conditions: Escherichia coli, 1507E, read-out: Minimum Inhibitory Concentration (MIC). The method, then: as §1, §2
The subject of the next experiment is E.coli KN126. The note with it: Escherichia coli, Mueller Hinton agar, 16 to 18 hours at 37°C, read-out: Minimum Inhibitory Concentration (MIC). How it is done: as §1, §2
Another experiment deals with Staph.aureus 503. The note with it: Staphylococcus aureus, Mueller Hinton agar, 16 to 18 hours at 37°C, read-out: Minimum Inhibitory Concentration (MIC). The method, then: as §1, §2
Another experiment concerns Staph.aureus SG511. Conditions: Staphylococcus aureus, Mueller Hinton agar, 16 to 18 hours at 37°C, read-out: Minimum Inhibitory Concentration (MIC). The method, then:
as §1, §2

The next experiment relates to Str.pyogenes 77A. The note with it: Streptococcus pyogenes, Mueller Hinton agar, 16 to 18 hours at 37°C, read-out: Minimum Inhibitory Concentration (MIC). The method, then: as §1, §2

≈ marks a conversion by molar mass, not a printed value.

`COc1ccc(C2=C(C(=O)O)N3C(=O)[C@H]([C@@H](C)O)[C@H]3S2)cc1` [Example 4-OCH3]: the MIC in the experiment with E.coli 055 was 3.13 mg/L (≈ 9.74 µM); in the experiment with Ent.cloacae P99 it was 100 mg/L (≈ 311 µM); in the experiment on E.coli DC0, 25 mg/L (≈ 77.8 µM); in the experiment on E.coli DC2, 0.78 mg/L (≈ 2.43 µM); in the experiment with Kl.aerog. 1082E, 0.78 mg/L (≈ 2.43 µM); in the experiment with Kl.aerog. 1522E, 12.5 mg/L (≈ 38.9 µM). In addition, the MIC was 12.5 mg/L (≈ 38.9 µM) with E.coli TEM; 3.13 mg/L (≈ 9.74 µM) in the experiment with Str.faecium D; 12.5 mg/L (≈ 38.9 µM) in the experiment with Ent.cloacae 1321E; 6.25 mg/L (≈ 19.4 µM) in the experiment with Salm.typh. MZII; 0.1 mg/L (≈ 0.311 µM) in the experiment on Bac.subt. ATCC6633; < 0.05 mg/L in the experiment with Str.pyogenes 308A. The MIC with Staph.aureus 285 is 0.19 mg/L (≈ 0.591 µM); in the experiment on E.coli 1507E, 12.5 mg/L (≈ 38.9 µM); with E.coli KN126, 12.5 mg/L (≈ 38.9 µM); in the experiment with Staph.aureus 503 it was 0.19 mg/L (≈ 0.591 µM); in the experiment on Staph.aureus SG511, 0.1 mg/L (≈ 0.311 µM); with Str.pyogenes 77A it was < 0.05 mg/L.

The record behind these values is patent EP0212404A1, “7-oxo-4-thia-1-azabicyclo [3.2.0] hept-2-ene derivatives” (HOECHST AKTIENGESELLSCHAFT, priority 1985, dated 1987).
